Measured values from US8247377B2, “Non-steroidal glucocorticoid inhibitors and their use in treating inflammation, allergy and auto-immune conditions” (Glaxo Group Limited, priority 2006, dated 2012).

Tests used:
Assay type in all cases: cell-based
MMTV promoter = experiment: MMTV agonist assay in A549 MMTV cells; details: Homo sapiens, A549, 6 h, >85% = full agonist, >20% and <85% = partial or efficacy selective agonist, read-out: average maximum asymptote in the MMTV agonist assay
In short: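 A549 cells stably carrying an MMTV promoter-driven renilla luciferase reporter were exposed to compound for 6 h at 37 °C in DMEM with 10% FCS and 25 mM HEPES. Luminescence read after renilla substrate addition; pEC50 and maximum asymptote estimated from dose-response curves.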

NFκB = NFκB agonist assay in A549 SPAP cells; details: Homo sapiens; for Emax: A549, A549 SPAP cells, >85% = full agonist, ≧20% = partial or full agonist, read-out: average maximum asymptote in the NFkB assay; for IC50: A549 SPAP cells, TNFα 3.2 ng/ml, read-out: pIC50 for the NFkB assay (converted);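 for average maximum asymptote in the NFkB assay: maximum inhibition of the TNFα-induced NFκB-driven signal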
In short: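 A549 cells stably carrying an ELAM/NFκB-driven SPAP reporter were pre-incubated 1 h at 37° C with compound, then stimulated with TNFα (3.2 ng/ml final) for 15 h. SPAP activity read colorimetrically with pNPP at 405 nm after ~1 h; pIC50 estimated from dose-response curves.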

progesterone receptor = biological target: T1, progesterone receptor (Homo sapiens, UniProt P06401); experiment: Assay for progesterone receptor activity (CV-1 cells, PRb-BacMam/MMTV-BacMam); details: CV-1 cells transduced with PRb-BacMam and MMTV-BacMam; read-out: pEC50 progesterone receptor activity (converted)
T1 construct: expressed in transfected cells; host or cells: CV-1 cells transduced with PRb-BacMam and MMTV-BacMam
T1 sequence (P06401 1-933): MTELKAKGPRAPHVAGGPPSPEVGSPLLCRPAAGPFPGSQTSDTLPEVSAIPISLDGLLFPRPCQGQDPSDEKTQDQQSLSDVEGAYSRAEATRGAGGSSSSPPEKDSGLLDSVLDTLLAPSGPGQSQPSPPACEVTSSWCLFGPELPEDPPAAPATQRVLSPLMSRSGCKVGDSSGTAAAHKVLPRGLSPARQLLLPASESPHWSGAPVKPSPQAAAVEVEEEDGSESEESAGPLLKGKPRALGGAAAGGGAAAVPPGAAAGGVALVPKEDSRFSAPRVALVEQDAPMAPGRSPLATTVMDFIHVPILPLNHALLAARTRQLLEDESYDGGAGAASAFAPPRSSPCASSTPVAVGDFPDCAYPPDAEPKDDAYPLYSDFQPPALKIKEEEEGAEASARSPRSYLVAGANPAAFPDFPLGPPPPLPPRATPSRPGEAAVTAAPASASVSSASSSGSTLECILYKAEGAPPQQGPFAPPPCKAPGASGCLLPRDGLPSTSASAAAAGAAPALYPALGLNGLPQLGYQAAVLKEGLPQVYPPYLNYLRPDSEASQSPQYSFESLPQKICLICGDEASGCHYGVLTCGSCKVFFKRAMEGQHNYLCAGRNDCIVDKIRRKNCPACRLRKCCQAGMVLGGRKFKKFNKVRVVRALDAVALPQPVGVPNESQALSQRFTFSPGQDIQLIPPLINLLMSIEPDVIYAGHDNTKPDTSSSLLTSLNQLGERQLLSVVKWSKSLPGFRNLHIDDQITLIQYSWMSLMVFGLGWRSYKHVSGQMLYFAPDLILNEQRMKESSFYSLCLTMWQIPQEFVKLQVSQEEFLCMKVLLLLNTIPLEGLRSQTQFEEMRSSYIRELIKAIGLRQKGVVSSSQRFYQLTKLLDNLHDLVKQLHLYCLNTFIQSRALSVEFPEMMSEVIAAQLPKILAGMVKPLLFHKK
In short: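 CV-1 cells co-transduced with PRb-BacMam and MMTV-BacMam (10% each), seeded onto compounds in DMEM with 10% serum. After 24 h, luminescence was read with Steadylite. pEC50 values were estimated from dose-response curves.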

Compound | Emax (MMTV promoter) | Emax (NFκB) | IC50 (NFκB) | EC50 (progesterone receptor)
CCN(CC(O)(CNC(=O)c1cnn(-c2ccc(F)cc2)c1N)C(F)(F)F)C(=O)c1c(Cl)cccc1OC(F)F (racemic) [Example 25 (racemic), 5-amino-N-(2-{[({2-chloro-6-[(difluoromethyl)oxy]phenyl}carbonyl)(ethyl)amino]methyl}-3,3,3-trifluoro-2-hydroxypropyl)-1-(4-fluorophenyl)-1H-pyrazole-4-carboxamide] | > 85% | > 85% | < 1000 nM | > 1000 nM
CCN(CC(O)(CNC(=O)c1cnn(-c2ccc(F)cc2)c1N)C(F)(F)F)C(=O)c1c(OC(F)F)cccc1OC(F)F (racemic) [Example 26 (racemic), 5-amino-N-(2-{[({2,6-bis[(difluoromethyl)oxy]phenyl}carbonyl)(ethyl)amino]methyl}-3,3,3-trifluoro-2-hydroxypropyl)-1-(4-fluorophenyl)-1H-pyrazole-4-carboxamide] | > 85% | > 85% | < 1000 nM | > 1000 nM
CCN(CC(O)(CNC(=O)c1cnn(-c2ccc(F)cc2)c1N)C(F)(F)F)C(=O)c1c(C(F)(F)F)cccc1C(F)(F)F (racemic) [Example 27 (racemic), 5-amino-N-(2-{[{[2,6-bis(trifluoromethyl)phenyl]carbonyl}(ethyl)amino]methyl}-3,3,3-trifluoro-2-hydroxypropyl)-1-(4-fluorophenyl)-1H-pyrazole-4-carboxamide] | > 85% | > 85% | < 1000 nM | > 1000 nM
Nc1c(C(=O)NCC(O)(CN(CCF)C(=O)c2c(Cl)cccc2Cl)C(F)(F)F)cnn1-c1ccc(F)cc1 (racemic) [Example 28 (racemic), 5-amino-N-(2-{[[(2,6-dichlorophenyl)carbonyl](2-fluoroethyl)amino]methyl}-3,3,3-trifluoro-2-hydroxypropyl)-1-(4-fluorophenyl)-1H-pyrazole-4-carboxamide] | > 85% | > 85% | < 1000 nM | > 1000 nM
Nc1c(C(=O)NCC(O)(CN(CCF)C(=O)c2c(Cl)cccc2Br)C(F)(F)F)cnn1-c1ccc(F)cc1 (racemic) [Example 30 (racemic), 5-amino-N-(2-{[[(2-bromo-6-chlorophenyl)carbonyl](2-fluoroethyl)amino]methyl}-3,3,3-trifluoro-2-hydroxypropyl)-1-(4-fluorophenyl)-1H-pyrazole-4-carboxamide] | > 85% | > 85% | < 1000 nM | > 1000 nM
Nc1c(C(=O)NCC(O)(CN(CCF)C(=O)c2c(Cl)cccc2OC(F)F)C(F)(F)F)cnn1-c1ccc(F)cc1 (racemic) [Example 31 (racemic), 5-amino-N-(2-{[({2-chloro-6-[(difluoromethyl)oxy]phenyl}carbonyl)(2-fluoroethyl)amino]methyl}-3,3,3-trifluoro-2-hydroxypropyl)-1-(4-fluorophenyl)-1H-pyrazole-4-carboxamide] | > 85% | > 85% | < 1000 nM | > 1000 nM
CCN(CC(O)(CNC(=O)c1cnn(-c2ccc(F)c(F)c2)c1N)C(F)(F)F)C(=O)c1c(F)cccc1F (racemic) [Example 33 (racemic), 5-amino-1-(3,4-difluorophenyl)-N-(2-{[[(2,6-difluorophenyl)carbonyl](ethyl)amino]methyl}-3,3,3-trifluoro-2-hydroxypropyl)-1H-pyrazole-4-carboxamide] | > 85% | > 85% | < 1000 nM | > 1000 nM
CCN(CC(O)(CNC(=O)c1cnn(-c2ccc(F)cc2F)c1N)C(F)(F)F)C(=O)c1c(F)cccc1F (racemic) [Example 34 (racemic), 5-amino-1-(2,4-difluorophenyl)-N-(2-{[[(2,6-difluorophenyl)carbonyl](ethyl)amino]methyl}-3,3,3-trifluoro-2-hydroxypropyl)-1H-pyrazole-4-carboxamide] | > 85% | > 85% | < 1000 nM | > 1000 nM
